The target in test [1] is T1, full-length androgen receptor (HEK293 cells stably expressing) (Homo sapiens, UniProt P10275).
T1 sequence (P10275 1-920): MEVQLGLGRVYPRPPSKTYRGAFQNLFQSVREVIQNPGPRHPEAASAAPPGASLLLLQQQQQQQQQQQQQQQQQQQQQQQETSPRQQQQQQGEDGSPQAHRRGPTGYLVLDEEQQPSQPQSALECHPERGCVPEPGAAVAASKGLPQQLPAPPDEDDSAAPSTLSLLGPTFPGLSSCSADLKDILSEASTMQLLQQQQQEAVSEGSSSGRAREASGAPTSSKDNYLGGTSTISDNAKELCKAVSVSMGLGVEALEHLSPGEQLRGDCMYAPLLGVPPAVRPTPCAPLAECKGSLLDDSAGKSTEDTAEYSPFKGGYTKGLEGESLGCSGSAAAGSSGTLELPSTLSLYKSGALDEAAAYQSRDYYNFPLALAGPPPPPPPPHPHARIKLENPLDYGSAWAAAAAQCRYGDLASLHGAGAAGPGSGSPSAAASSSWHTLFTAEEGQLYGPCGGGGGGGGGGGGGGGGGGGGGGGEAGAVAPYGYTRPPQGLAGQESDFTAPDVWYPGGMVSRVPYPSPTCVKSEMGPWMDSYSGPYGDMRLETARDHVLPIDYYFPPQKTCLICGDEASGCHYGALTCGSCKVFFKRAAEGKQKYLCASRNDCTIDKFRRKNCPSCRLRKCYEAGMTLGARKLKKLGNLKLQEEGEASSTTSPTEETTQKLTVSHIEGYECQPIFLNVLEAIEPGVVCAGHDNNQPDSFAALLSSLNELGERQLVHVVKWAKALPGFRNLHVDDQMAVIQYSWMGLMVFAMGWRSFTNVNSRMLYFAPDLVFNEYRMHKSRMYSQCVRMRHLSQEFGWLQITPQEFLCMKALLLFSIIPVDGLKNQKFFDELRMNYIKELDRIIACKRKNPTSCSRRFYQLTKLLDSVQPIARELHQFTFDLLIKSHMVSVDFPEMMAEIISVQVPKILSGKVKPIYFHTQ
The test can be described thus: AR antagonism assay (luciferase reporter).

The subject of another test is 22Rv1 cells. The experiment in a line: Cell viability assay (CellTiterGlo). To be noted: Homo sapiens, 22Rv1, 144 h, read-out: 22RV1 (IC50, nM).
Test [2] has as its target T2, ligand binding domain of the glucocorticoid receptor (HEK293 cells stably expressing) (Homo sapiens, UniProt P04150).
T2 sequence (P04150 524-758 limits assumed): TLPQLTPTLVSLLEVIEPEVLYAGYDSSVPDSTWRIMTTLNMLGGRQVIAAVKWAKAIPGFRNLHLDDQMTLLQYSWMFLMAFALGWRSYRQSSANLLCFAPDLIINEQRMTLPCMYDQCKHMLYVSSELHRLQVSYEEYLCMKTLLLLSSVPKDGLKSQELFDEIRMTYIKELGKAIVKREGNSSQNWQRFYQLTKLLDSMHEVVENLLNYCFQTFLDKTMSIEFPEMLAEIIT
The test can be described thus: GR antagonism assay (luciferase reporter).

Test [3] concerns the target T3, GR (cytosol from IM-9 cells) (Homo sapiens, UniProt P04150).
T3 sequence (P04150 1-777): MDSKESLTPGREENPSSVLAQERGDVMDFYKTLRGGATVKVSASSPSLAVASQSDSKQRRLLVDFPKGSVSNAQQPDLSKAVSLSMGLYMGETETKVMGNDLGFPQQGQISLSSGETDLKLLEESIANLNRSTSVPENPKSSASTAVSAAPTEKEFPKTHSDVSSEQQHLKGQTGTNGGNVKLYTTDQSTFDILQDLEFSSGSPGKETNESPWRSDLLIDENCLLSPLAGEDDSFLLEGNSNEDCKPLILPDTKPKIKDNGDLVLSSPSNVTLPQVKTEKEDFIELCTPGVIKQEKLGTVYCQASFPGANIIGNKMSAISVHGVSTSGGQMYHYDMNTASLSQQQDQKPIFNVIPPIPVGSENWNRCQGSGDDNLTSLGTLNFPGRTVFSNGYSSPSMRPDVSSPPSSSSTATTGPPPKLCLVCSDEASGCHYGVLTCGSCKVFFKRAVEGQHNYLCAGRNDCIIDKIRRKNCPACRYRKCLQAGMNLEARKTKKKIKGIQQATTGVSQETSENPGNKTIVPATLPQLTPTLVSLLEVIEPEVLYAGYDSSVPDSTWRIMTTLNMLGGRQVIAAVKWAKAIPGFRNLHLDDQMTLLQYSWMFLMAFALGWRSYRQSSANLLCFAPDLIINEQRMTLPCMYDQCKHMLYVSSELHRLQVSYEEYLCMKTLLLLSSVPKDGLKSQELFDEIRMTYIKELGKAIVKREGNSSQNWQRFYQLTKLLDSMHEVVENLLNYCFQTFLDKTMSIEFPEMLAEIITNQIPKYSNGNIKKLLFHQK
The experiment in a line: GR binding assay (3H-Dexamethasone displacement).

For another test, the system named is LNCap cells. The experiment in a line: Cell viability assay (CellTiterGlo). Format: cell-based. To be noted: Homo sapiens, 144 h.
In test [4] the target is T4, AR (cytosol from LnCaP cells) (Homo sapiens, UniProt P10275, T878A).
T4 sequence (P10275 1-920 T878A): T1 sequence (P10275 1-920) with T878A
The experiment in a line: AR binding assay (3H-R1881 displacement).
Method: The plate was then centrifuged at 3000 rpm for 30 minutes at 4° C.

The next test deals with IEC6 cells. The experiment in a line: Cell viability assay (CellTiterGlo). To be noted: Rattus norvegicus, IEC-6, 144 h, read-out: IEC-6 (IC50, nM).

Structures are written as SMILES. Positions count from the first letter of the chain named. Counter-ions that a name gives are not always drawn. Like-named read-outs stand apart in the source and are kept apart here. Where only a bound is given, the exact number is not on record here.

Take `CC[C@@]1(O)C(=O)OCc2c1cc1n(c2=O)Cc2cc3c(CN4CCN(CC5CCN(c6ccc(C(=O)N[C@H]7CC[C@H](Oc8ccc(C#N)c(Cl)c8C)CC7)nn6)CC5)CC4)c(O)ccc3nc2-1` [Compound 26, N-((1r,4r)-4-(3-Chloro-4-cyano-2-methylphenoxy)cyclohexyl)-6-(4-((4-(((S)-4-ethyl-4,9-dihydroxy-3,14-dioxo-3,4,12,14-tetrahydro-1H-pyrano[3′,4′:6,7]indolizino[1,2-b]quinolin-10-yl)methyl)piperazin-1-yl)methyl)piperidin-1-yl)pyridazine-3-carboxamide Formate]: the IC50 is greater than 1000 nM in test [1]; 10 to 100 nM in the test with 22Rv1 cells; greater than 1000 nM in test [2]; greater than 1000 nM in test [3]; less than 10 nM in the test on LNCap cells (6 days incubation, CellTiterGlo, read-out: LNCap (IC50)); less than 10 nM in test [4].
On to `CC[C@@]1(O)C(=O)OCc2c1cc1n(c2=O)Cc2cc3c(CN4CCN(C(=O)C5CCN(c6ccc(C(=O)N[C@H]7CC[C@H](Oc8ccc(C#N)c(Cl)c8C)CC7)nn6)CC5)CC4)c(OC(=O)N4CCN(C)CC4)ccc3nc2-1` [Compound 27, (S)-10-((4-(1-(6-(((1r,4r)-4-(3-Chloro-4-cyano-2-methylphenoxy)cyclohexyl)carbamoyl)-pyridazin-3-yl)piperidine-4-carbonyl)piperazin-1-yl)methyl)-4-ethyl-4-hydroxy-3,14-dioxo-3,4,12,14-tetrahydro-1H-pyrano[3′,4′:6,7]indolizino[1,2-b]quinolin-9-yl 4-methylpiperazine-1-carboxylate Formate], for which the IC50 in test [1] is 101 to 1000 nM; in the test with 22Rv1 cells, 101 to 1000 nM; in test [2], greater than 1000 nM; in test [3], 10 to 100 nM; with LNCap cells (read-out: LNCap (IC50, nM)), 10 to 100 nM; in test [4], less than 10 nM.
For the molecule `CC[C@@]1(O)C(=O)OCc2c1cc1n(c2=O)Cc2cc3c(CN(C)C)c(OC(=O)N4CCN(CC5CCN(c6ccc(C(=O)N[C@H]7CC[C@H](N(C)c8ccc(C#N)c(Cl)c8)CC7)nn6)CC5)CC4)ccc3nc2-1` [Compound No. 18, (S)-10-((Dimethylamino)methyl)-4-ethyl-4-hydroxy-3,14-dioxo-3,4,12,14-tetrahydro-1H-pyrano[3′,4′:6,7]indolizino[1,2-b]quinolin-9-yl 4-((1-(6-(((1r,4r)-4-((3-chloro-4-cyanophenyl)(methyl)-amino)cyclohexyl)carbamoyl)pyridazin-3-yl)piperidin-4-yl)methyl)piperazine-1-carboxylate], the IC50 in the test with IEC6 cells was 101 to 1000 nM; in test [1], 101 to 1000 nM; in the test on 22Rv1 cells, 10 to 100 nM; in test [2], 101 to 1000 nM; in test [3], 101 to 1000 nM; with LNCap cells (read-out: LNCap (IC50, nM)), 10 to 100 nM. The same molecule registered an IC50 in test [4] of 10 to 100 nM.
As for `CC[C@@]1(O)C(=O)OCc2c1cc1n(c2=O)Cc2cc3c(CN(C)C)c(OC(=O)N4C[C@H](C)N(C(=O)C5CCN(c6ccc(C(=O)N[C@H]7CC[C@H](Oc8ccc(C#N)c(Cl)c8C)CC7)nn6)CC5)C[C@H]4C)ccc3nc2-1` [Compound No. 21, (S)-10-((Dimethylamino)methyl)-4-ethyl-4-hydroxy-3,14-dioxo-3,4,12,14-tetrahydro-1H-pyrano[3′,4′:6,7]indolizino[1,2-b]quinolin-9-yl (2R,5S)-4-(1-(6-(((1r,4r)-4-(3-chloro-4-cyano-2-methylphenoxy)cyclohexyl)carbamoyl)pyridazin-3-yl)piperidine-4-carbonyl)-2,5-dimethylpiperazine-1-carboxylate Formate], the IC50 in the test with IEC6 cells was greater than 1000 nM; in test [1], greater than 1000 nM; in the test on 22Rv1 cells, 101 to 1000 nM; in test [2] it was greater than 1000 nM; in test [3], greater than 1000 nM; in the test with LNCap cells (read-out: LNCap (IC50, nM)) it was 10 to 100 nM. The IC50 in test [4] was less than 10 nM.
Regarding `CC[C@@]1(O)C(=O)OCc2c1cc1n(c2=O)Cc2cc3c(CN(C)C)c(OC(=O)N4CCN(CCCCCCN(C)C5CCN(c6ccc(C(=O)N[C@H]7CC[C@H](Oc8ccc(C#N)c(Cl)c8C)CC7)nn6)CC5)CC4)ccc3nc2-1` [Compound No. 22, (S)-10-((Dimethylamino)methyl)-4-ethyl-4-hydroxy-3,14-dioxo-3,4,12,14-tetrahydro-1H-pyrano[3′,4′:6,7]indolizino[1,2-b]quinolin-9-yl 4-(6-((1-(6-(((1r,4r)-4-(3-chloro-4-cyano-2-methylphenoxy)-cyclohexyl)carbamoyl)pyridazin-3-yl)piperidin-4-yl)(methyl)amino)hexyl)piperazine-1-carboxylate Formate], the IC50 in test [1] was 101 to 1000 nM; in the test with 22Rv1 cells, 101 to 1000 nM; in test [2], 101 to 1000 nM; in test [3], 101 to 1000 nM; in the test with LNCap cells (read-out: LNCap (IC50, nM)) it was 10 to 100 nM; in test [4], less than 10 nM.

The values are drawn from patent US20260102501A1, “ANTI-CANCER NUCLEAR HORMONE RECEPTOR-TARGETING COMPOUNDS” (Nuvation Bio Inc., priority 2022, published 2026).
